Test results taken from ChEMBL document CHEMBL1201862, “PubChem BioAssay data set” (2004).
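Cultured in 96-well plates, cells were exposed to test compound for 48 hours across five concentrations. Abbreviation: GI50, concentration required for 50% inhibition of growth.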 Activity calls are given as the source filed them. Cut-off read from the data, not from the text of the source: active = GI50 up to about 1.1 µM and inactive = higher.

Assays:
Assay in all cases: NCI anticancer screen, dose series, 48 h
HOP-18 = tested on: HOP-18
A549 = tested on: A549
NCI-H460 = tested on: NCI-H460
LOX IMVI = tested on: LOX IMVI
M14 = tested on: M14
RXF 393 = tested on: RXF 393
SF-539 = tested on: SF-539
SF-295 = tested on: SF-295
EKVX = tested on: EKVX
SW-620 = tested on: SW-620
SN12C = tested on: SN12C
M19-MEL = tested on: M19-MEL
UO-31 = tested on: UO-31
KM-20L2 = tested on: KM-20L2
DMS-114 = tested on: DMS-114
HCT-116 = tested on: HCT-116
OVCAR-8 = tested on: OVCAR-8
HL-60 = tested on: HL-60
TK-10 = tested on: TK-10
HOP-62 = tested on: HOP-62
HCC 2998 = tested on: HCC 2998
DLD-1 = tested on: DLD-1
SNB-19 = tested on: SNB-19
SK-MEL-5 = tested on: SK-MEL-5
CAKI-1 = tested on: CAKI-1
LXFL 529 = tested on: LXFL 529
SNB-75 = tested on: SNB-75
KM12 = tested on: KM12
HOP-92 = tested on: HOP-92
Malme-3M = tested on: Malme-3M
SNB-78 = tested on: SNB-78
SK-MEL-2 = tested on: SK-MEL-2
HT-29 = tested on: HT-29
OVCAR-5 = tested on: OVCAR-5
SF-268 = tested on: SF-268
OVCAR-4 = tested on: OVCAR-4
NCI-H226 = tested on: NCI-H226
786-0 = tested on: 786-0
U-251 = tested on: U-251
NCI-H522 = tested on: NCI-H522
NCI-H23 = tested on: NCI-H23
UACC-257 = tested on: UACC-257
SK-MEL-28 = tested on: SK-MEL-28
SR = tested on: SR
BT-549 = tested on: BT-549
IGROV-1 = tested on: IGROV-1
A498 = tested on: A498
MOLT-4 = tested on: MOLT-4
MDA-N = tested on: MDA-N
ACHN = tested on: ACHN
SK-OV-3 = tested on: SK-OV-3
NCI/ADR-RES = tested on: NCI/ADR-RES
RPMI-8226 = tested on: RPMI-8226
T47D = tested on: T47D
MDA-MB-435 = tested on: MDA-MB-435
HCT-15 = tested on: HCT-15
K562 = tested on: K562
MDA-MB-231 = tested on: MDA-MB-231
Hs-578T = tested on: Hs-578T
UACC-62 = tested on: UACC-62
MCF7 = tested on: MCF7
OVCAR-3 = tested on: OVCAR-3
PC-3 = tested on: PC-3
COLO 205 = tested on: COLO 205
CCRF-CEM = tested on: CCRF-CEM
DU-145 = tested on: DU-145

In the case of CC(C)N(O)C(=N)c1ccccc1, the GI50 (HOP-18) was 0.0473 µM (active), the GI50 (A549) was > 100 µM (inactive) and the GI50 (NCI-H460) was > 100 µM (inactive). For the same molecule, the GI50 (LOX IMVI) was > 100 µM (inactive), the GI50 (M14) was > 100 µM (inactive) and the GI50 (RXF 393) was > 100 µM (inactive). For the same molecule, the GI50 (SF-539) was > 100 µM (inactive), the GI50 (SF-295) was > 100 µM (inactive) and the GI50 (EKVX) was > 100 µM (inactive). For the same molecule, the GI50 (SW-620) was > 100 µM (inactive), the GI50 (SN12C) was > 100 µM (inactive) and the GI50 (M19-MEL) was > 100 µM (inactive). The GI50 (UO-31) was > 100 µM (inactive), the GI50 (KM-20L2) was > 100 µM (inactive) and the GI50 (DMS-114) was > 100 µM (inactive). For the same molecule, the GI50 (HCT-116) was > 100 µM (inactive), the GI50 (OVCAR-8) was > 100 µM (inactive) and the GI50 (HL-60) was > 100 µM (inactive). The GI50 (TK-10) was > 100 µM (inactive), the GI50 (HOP-62) was > 100 µM (inactive) and the GI50 (HCC 2998) was > 100 µM (inactive). The GI50 (DLD-1) was > 100 µM (inactive), the GI50 (SNB-19) was > 100 µM (inactive) and the GI50 (SK-MEL-5) was > 100 µM (inactive). The GI50 (CAKI-1) was > 100 µM (inactive), the GI50 (LXFL 529) was > 100 µM (inactive) and the GI50 (SNB-75) was > 100 µM (inactive). For the same molecule, the GI50 (KM12) was > 100 µM (inactive), the GI50 (HOP-92) was > 100 µM (inactive) and the GI50 (Malme-3M) was > 10 µM (inactive). For the same molecule, the GI50 (SNB-78) was > 100 µM (inactive), the GI50 (SK-MEL-2) was > 100 µM (inactive) and the GI50 (HT-29) was > 100 µM (inactive). The GI50 (OVCAR-5) was > 100 µM (inactive), the GI50 (SF-268) was > 100 µM (inactive) and the GI50 (OVCAR-4) was > 100 µM (inactive). For the same molecule, the GI50 (NCI-H226) was > 100 µM (inactive), the GI50 (786-0) was 54.7 µM (inactive) and the GI50 (U-251) was > 100 µM (inactive). The GI50 (NCI-H522) was > 100 µM (inactive), the GI50 (NCI-H23) was > 100 µM (inactive) and the GI50 (UACC-257) was > 100 µM (inactive). For the same molecule, the GI50 (SK-MEL-28) was > 100 µM (inactive).
O=C(O)[C@H]1NC[C@H]2C(Br)=NO[C@@H]12 was tested, and the GI50 (A549) was > 100 µM (inactive), the GI50 (NCI-H460) was > 100 µM (inactive) and the GI50 (LOX IMVI) was > 100 µM (inactive). The GI50 (SR) was > 100 µM (inactive), the GI50 (BT-549) was > 100 µM (inactive) and the GI50 (M14) was > 100 µM (inactive). The GI50 (RXF 393) was > 100 µM (inactive), the GI50 (SF-539) was > 100 µM (inactive) and the GI50 (SF-295) was > 100 µM (inactive). For the same molecule, the GI50 (EKVX) was > 100 µM (inactive), the GI50 (IGROV-1) was > 100 µM (inactive) and the GI50 (SW-620) was > 100 µM (inactive). For the same molecule, the GI50 (A498) was > 100 µM (inactive), the GI50 (SN12C) was > 100 µM (inactive) and the GI50 (MOLT-4) was > 100 µM (inactive). For the same molecule, the GI50 (MDA-N) was > 100 µM (inactive), the GI50 (ACHN) was > 100 µM (inactive) and the GI50 (SK-OV-3) was > 100 µM (inactive). For the same molecule, the GI50 (UO-31) was > 100 µM (inactive), the GI50 (HCT-116) was > 100 µM (inactive) and the GI50 (NCI/ADR-RES) was > 100 µM (inactive). The GI50 (OVCAR-8) was > 100 µM (inactive), the GI50 (HL-60) was > 100 µM (inactive) and the GI50 (TK-10) was > 100 µM (inactive). For the same molecule, the GI50 (HOP-62) was > 100 µM (inactive), the GI50 (HCC 2998) was > 100 µM (inactive) and the GI50 (RPMI-8226) was > 100 µM (inactive). The GI50 (SNB-19) was > 100 µM (inactive), the GI50 (SK-MEL-5) was > 100 µM (inactive) and the GI50 (CAKI-1) was > 100 µM (inactive). For the same molecule, the GI50 (T47D) was > 100 µM (inactive), the GI50 (MDA-MB-435) was > 100 µM (inactive) and the GI50 (SNB-75) was > 100 µM (inactive). For the same molecule, the GI50 (HCT-15) was > 100 µM, the GI50 (K562) was > 100 µM (inactive) and the GI50 (KM12) was > 100 µM (inactive). The GI50 (HOP-92) was > 100 µM (inactive), the GI50 (Malme-3M) was > 100 µM (inactive) and the GI50 (MDA-MB-231) was > 100 µM (inactive). The GI50 (SK-MEL-2) was > 100 µM (inactive), the GI50 (HT-29) was > 100 µM (inactive) and the GI50 (Hs-578T) was > 100 µM (inactive). For the same molecule, the GI50 (OVCAR-5) was > 100 µM (inactive), the GI50 (SF-268) was > 100 µM (inactive) and the GI50 (UACC-62) was > 100 µM (inactive). For the same molecule, the GI50 (OVCAR-4) was > 100 µM (inactive), the GI50 (NCI-H226) was > 100 µM (inactive) and the GI50 (MCF7) was > 100 µM (inactive). The GI50 (OVCAR-3) was > 100 µM (inactive), the GI50 (PC-3) was > 100 µM (inactive) and the GI50 (786-0) was > 100 µM (inactive). For the same molecule, the GI50 (COLO 205) was > 100 µM (inactive), the GI50 (CCRF-CEM) was > 100 µM (inactive) and the GI50 (U-251) was > 100 µM (inactive). The GI50 (NCI-H522) was > 100 µM (inactive), the GI50 (NCI-H23) was > 100 µM (inactive) and the GI50 (UACC-257) was > 100 µM (inactive). For the same molecule, the GI50 (SK-MEL-28) was > 100 µM (inactive) and the GI50 (DU-145) was > 100 µM (inactive).
